We go through one molecule from patent publication US20090012170A1, “TREATMENT OF SYMPTOMS OF MOTOR DYSFUNCTION” (priority 2005, published 2009).

Molecules are shown by their SMILES.

The test system of the assay is PD patients. Description: Pooled analysis of three double blind, placebo-controlled studies and their open-label extensions: earlier vs. delayed start of entacapone adjunct to levodopa/DDC inhibitor. The format is in vivo, human. The method, then: A study was carried out to evaluate the effect of earlier vs. delayed start of entacapone adjunct to traditional levodopa/DDC inhibitor treatment on the long-term Parkinson's disease symptom control up to 5 years.
Analysis of pooled data of three pivotal double blind, placebo-controlled studies, and their respective long-term open-label extension studies up to 5 years on entacapone adjunct to optimised levodopa/DDC inhibitor and other PD treatment.
A total of 488 PD patients, of whom 269 were on entacapone and 219 on placebo during the 6-month double blind phase, continued with open entacapone treatment in the long-term extension phases up to 5 years. UPDRS III assessment and the mean daily levodopa dose were reported until the point when a minimum of 10 patients in each treatment arm was available, i.e. up to five years.

Turning to `CCN(CC)C(=O)/C(C#N)=C/c1cc(O)c(O)c([N+](=O)[O-])c1` [entacapone, (E)-2-cyano-3-(3,4-dihydroxy-5-nitrophenyl)-N-diethyl-2 propenamide], under “delayed start group, comparable with the decrease in the earlier start group at the beginning of the double-blind phase, thereafter below baseline in both groups”, the “decrease of mean daily levodopa dose after initiation of open entacapone” value is given as “about 70 mg”. In addition, the “mean difference in UPDRS III over time between the earlier and delayed start treatment groups” value (entacapone adjunct to levodopa/DDC inhibitor, earlier vs 6 months delayed start, up to 5 years, 95%CI [−3.01, −0.31], repeated measures analysis, p<0.05) is given as −1.66.
